Reference: BigSolDB 2.1

N=C(Nc1ccccc1)Nc1ccccc1
solubility (mole fraction)
Conditions | in acetone | in acetonitrile | in ethanol | in ethyl acetate | in isobutanol | in n-butanol | in n-propanol | in toluene
273.15 K | 0.0433 | 0.00828 | 0.0144 | 0.0278 | 0.0124 | 0.018 | 0.0159 | 0.00132
275.65 K | 0.0468 | 0.00909 | 0.0156 | 0.03 | 0.0135 | 0.0194 | 0.0174 | 0.00154
278.15 K | 0.0508 | 0.0101 | 0.017 | 0.0325 | 0.0147 | 0.021 | 0.0189 | 0.00172
280.65 K | 0.0554 | 0.0111 | 0.0184 | 0.0347 | 0.016 | 0.0227 | 0.0204 | 0.00195
283.15 K | 0.0599 | 0.0122 | 0.0199 | 0.0372 | 0.0176 | 0.0245 | 0.0222 | 0.00219
285.65 K | 0.0648 | 0.0134 | 0.0217 | 0.0401 | 0.0189 | 0.0266 | 0.0238 | 0.00249
288.15 K | 0.07 | 0.0147 | 0.0235 | 0.0435 | 0.0208 | 0.0286 | 0.0259 | 0.00282
290.65 K | 0.0751 | 0.0161 | 0.0253 | 0.0463 | 0.0224 | 0.0306 | 0.0278 | 0.00316
293.15 K | 0.0802 | 0.0179 | 0.0273 | 0.0496 | 0.0244 | 0.0329 | 0.0301 | 0.00354
295.65 K | 0.0862 | 0.0197 | 0.0292 | 0.053 | 0.0265 | 0.0352 | 0.0324 | 0.00389
298.15 K | 0.0928 | 0.0214 | 0.0315 | 0.0566 | 0.0286 | 0.0377 | 0.035 | 0.00432
300.65 K | 0.0993 | 0.0234 | 0.0337 | 0.0603 | 0.0311 | 0.0405 | 0.0379 | 0.00476
303.15 K | 0.106 | 0.0254 | 0.0363 | 0.0641 | 0.0333 | 0.0431 | 0.0406 | 0.00528
305.65 K | 0.113 | 0.0278 | 0.039 | 0.0678 | 0.0359 | 0.0462 | 0.0435 | 0.00584
308.15 K | 0.12 | 0.0303 | 0.0419 | 0.0719 | 0.0384 | 0.0494 | 0.0465 | 0.00641
310.65 K | 0.128 | 0.0331 | 0.0448 | 0.0763 | 0.0412 | 0.0527 | 0.0499 | 0.00709
313.15 K | 0.137 | 0.036 | 0.0483 | 0.0814 | 0.0446 | 0.0562 | 0.0537 | 0.00771
